pIC50: −log10 of the molar value. Structures can show the parent of a compound that is named as a salt. Where two headings read alike, the source gives them in different places.
Columns and labels:
Type in all cases: biochemical
[1] = biological target: T1, human JAK2 (a.a. 828-1132) (Homo sapiens, UniProt O60674); test: In vitro JAK kinase assay (HTRF, phosphorylation of a biotinylated peptide), JAK2
T1 construct: JAK2 (a.a. 828-1132); His tag (N); made in house; host or cells: insect cells (baculovirus)
T1 sequence (O60674 828-1132): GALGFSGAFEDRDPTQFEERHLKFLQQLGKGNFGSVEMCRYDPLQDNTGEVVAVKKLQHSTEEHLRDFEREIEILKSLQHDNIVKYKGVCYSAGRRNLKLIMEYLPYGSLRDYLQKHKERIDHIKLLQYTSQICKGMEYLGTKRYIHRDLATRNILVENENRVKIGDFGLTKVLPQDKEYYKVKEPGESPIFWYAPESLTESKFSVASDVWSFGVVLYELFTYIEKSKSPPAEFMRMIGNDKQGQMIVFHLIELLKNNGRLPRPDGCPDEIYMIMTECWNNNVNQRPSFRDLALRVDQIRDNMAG
Summary of the method: (§1)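 Phosphorylation of a biotinylated peptide by the JAK kinase domain, detected by HTRF with Eu-Py20 and SA-APC. ATP was 90 μM for JAK1, 30 μM for JAK2 and 3 μM for JAK3. Reactions ran 1 h at room temperature and were stopped with EDTA, followed by 40 min antibody binding.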

[2] = biological target: T2, human JAK1 (a.a. 837-1142) (Homo sapiens, UniProt P23458); test: In vitro JAK kinase assay (HTRF, phosphorylation of a biotinylated peptide), JAK1; details: read-out: JAK1 IC50
T2 construct: human JAK1 (a.a. 837-1142); His tag (N); made in house; host or cells: insect cells (baculovirus)
T2 sequence (P23458 849-1154): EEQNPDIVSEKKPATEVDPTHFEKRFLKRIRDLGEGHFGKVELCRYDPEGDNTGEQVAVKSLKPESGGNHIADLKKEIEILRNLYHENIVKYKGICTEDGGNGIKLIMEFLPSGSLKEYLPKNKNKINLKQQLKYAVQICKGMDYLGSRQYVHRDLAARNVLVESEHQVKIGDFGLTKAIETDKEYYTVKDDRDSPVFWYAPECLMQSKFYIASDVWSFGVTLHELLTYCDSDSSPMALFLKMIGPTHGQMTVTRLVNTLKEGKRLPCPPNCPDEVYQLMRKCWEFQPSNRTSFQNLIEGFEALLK
Summary of the method: as §1

[3] = biological target: T3, Recombinant Human Anaplastic Lymphoma Kinase (Homo sapiens, UniProt Q9UM73); test: ALK HTRF kinase assay; details: for pIC50: Table B1, cells without percent sign
T3 construct: purchased Invitrogen, Carlsbad, Calif
T3 sequence (Q9UM73 19-1620): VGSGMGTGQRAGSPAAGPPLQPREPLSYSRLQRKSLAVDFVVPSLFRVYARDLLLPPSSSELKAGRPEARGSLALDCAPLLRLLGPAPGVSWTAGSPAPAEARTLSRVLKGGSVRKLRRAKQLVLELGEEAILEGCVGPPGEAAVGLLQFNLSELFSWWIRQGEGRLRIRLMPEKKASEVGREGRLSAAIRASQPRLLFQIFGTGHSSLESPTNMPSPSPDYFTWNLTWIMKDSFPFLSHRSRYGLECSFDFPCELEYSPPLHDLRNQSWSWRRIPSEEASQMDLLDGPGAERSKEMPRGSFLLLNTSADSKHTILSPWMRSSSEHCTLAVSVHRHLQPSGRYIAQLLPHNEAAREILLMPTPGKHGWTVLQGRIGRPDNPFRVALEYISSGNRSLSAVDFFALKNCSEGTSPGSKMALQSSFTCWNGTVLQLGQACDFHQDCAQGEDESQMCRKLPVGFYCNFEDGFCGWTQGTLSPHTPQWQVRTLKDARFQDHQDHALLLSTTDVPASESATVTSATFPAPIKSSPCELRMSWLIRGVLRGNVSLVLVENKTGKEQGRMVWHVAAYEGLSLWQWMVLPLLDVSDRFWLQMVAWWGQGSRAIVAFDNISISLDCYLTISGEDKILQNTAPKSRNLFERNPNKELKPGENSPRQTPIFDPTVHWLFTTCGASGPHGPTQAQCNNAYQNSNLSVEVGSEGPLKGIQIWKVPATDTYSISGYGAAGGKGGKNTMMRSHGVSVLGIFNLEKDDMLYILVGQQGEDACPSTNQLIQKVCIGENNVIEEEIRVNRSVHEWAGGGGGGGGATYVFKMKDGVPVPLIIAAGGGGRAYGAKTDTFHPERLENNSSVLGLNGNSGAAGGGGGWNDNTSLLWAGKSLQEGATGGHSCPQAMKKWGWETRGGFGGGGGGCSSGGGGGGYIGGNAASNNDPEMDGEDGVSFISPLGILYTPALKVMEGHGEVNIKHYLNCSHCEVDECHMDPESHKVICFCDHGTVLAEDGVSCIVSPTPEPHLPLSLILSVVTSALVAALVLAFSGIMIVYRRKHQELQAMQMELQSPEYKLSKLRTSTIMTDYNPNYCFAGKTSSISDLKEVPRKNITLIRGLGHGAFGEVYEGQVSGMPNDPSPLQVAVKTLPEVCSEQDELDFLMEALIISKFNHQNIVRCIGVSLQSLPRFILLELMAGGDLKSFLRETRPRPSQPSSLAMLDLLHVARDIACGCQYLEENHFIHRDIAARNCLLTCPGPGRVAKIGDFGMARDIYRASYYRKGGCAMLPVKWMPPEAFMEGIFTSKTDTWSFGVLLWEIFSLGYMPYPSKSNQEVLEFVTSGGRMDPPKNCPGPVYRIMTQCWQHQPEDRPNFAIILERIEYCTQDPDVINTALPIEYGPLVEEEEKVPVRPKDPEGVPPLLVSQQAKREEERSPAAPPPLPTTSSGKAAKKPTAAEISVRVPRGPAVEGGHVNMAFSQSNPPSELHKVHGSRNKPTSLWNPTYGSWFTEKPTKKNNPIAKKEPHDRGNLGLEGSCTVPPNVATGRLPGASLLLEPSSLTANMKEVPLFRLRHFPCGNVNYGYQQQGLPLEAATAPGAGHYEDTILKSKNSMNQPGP
Summary of the method: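 Biotinylated peptide substrate, recombinant human ALK; detection via europium-chelate antibody to phosphotyrosine paired with streptavidin-APC. Potency expressed as IC50 from four-parameter curve fitting.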

[4] = biological target: T4, human JAK3 (a.a. 781-1124) (Homo sapiens, UniProt P52333); test: In vitro JAK kinase assay (HTRF, phosphorylation of a biotinylated peptide), JAK3
T4 construct: JAK3 (a.a. 781-1124); His tag (N); made in house; host or cells: insect cells (baculovirus)
T4 sequence (P52333 781-1124): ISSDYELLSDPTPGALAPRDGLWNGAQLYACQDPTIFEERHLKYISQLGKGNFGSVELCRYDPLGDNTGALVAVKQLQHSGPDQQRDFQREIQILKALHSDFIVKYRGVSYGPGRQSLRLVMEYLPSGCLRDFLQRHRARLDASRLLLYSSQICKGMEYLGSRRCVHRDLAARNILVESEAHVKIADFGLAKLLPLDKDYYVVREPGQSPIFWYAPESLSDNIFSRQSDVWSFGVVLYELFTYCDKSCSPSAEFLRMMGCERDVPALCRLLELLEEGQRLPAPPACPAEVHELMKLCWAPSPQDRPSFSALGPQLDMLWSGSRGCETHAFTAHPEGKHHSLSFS
Summary of the method: as §1

[5] = biological target: TYK2 (Homo sapiens, UniProt P29597); test: TYK2 kinase inhibition (Table A1)
Chain of TYK2 (P29597 whole entry): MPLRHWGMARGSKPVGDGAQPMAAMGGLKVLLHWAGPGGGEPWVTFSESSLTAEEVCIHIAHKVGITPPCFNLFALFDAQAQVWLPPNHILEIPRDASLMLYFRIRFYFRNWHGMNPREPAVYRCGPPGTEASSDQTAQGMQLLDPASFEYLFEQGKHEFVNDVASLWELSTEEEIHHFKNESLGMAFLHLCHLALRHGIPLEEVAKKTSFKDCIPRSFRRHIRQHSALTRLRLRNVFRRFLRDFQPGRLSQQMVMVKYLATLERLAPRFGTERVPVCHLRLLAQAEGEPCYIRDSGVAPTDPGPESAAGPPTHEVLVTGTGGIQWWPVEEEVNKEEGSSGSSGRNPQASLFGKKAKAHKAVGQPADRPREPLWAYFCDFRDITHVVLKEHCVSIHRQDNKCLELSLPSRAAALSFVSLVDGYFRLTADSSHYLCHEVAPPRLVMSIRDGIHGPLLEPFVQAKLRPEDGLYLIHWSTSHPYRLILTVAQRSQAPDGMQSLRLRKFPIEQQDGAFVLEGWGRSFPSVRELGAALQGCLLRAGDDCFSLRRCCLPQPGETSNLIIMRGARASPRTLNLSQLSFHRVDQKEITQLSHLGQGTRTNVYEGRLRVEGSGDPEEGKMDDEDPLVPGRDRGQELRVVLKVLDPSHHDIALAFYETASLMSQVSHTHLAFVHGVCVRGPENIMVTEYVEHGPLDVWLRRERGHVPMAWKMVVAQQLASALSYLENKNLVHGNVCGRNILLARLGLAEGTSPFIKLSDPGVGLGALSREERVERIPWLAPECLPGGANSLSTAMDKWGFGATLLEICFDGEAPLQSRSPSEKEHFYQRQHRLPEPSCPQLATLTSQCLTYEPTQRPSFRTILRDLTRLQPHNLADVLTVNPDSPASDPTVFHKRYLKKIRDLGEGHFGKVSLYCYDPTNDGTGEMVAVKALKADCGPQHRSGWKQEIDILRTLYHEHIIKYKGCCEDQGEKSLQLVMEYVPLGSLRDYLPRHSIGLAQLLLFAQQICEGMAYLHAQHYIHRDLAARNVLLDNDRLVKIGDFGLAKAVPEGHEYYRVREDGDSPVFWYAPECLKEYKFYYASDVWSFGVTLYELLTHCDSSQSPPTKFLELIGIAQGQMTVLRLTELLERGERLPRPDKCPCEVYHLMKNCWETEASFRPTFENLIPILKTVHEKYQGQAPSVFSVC

[6] = method AA1 (30 μM ATP) or AA2 (1000 μM ATP), not stated per value
[7] = method AA1 (90 μM ATP) or AA2 (1000 μM ATP), not stated per value
[8] = compound at 500 nM or 1 mM, 90 μM ATP
[9] = method AA1 (3 μM ATP) or AA2 (1000 μM ATP), not stated per value

Row | SMILES | pIC50 ([1]; Table B1) | pIC50 ([2]; Table B1) | pIC50 [3] | pIC50 ([4]; Table B1) | pIC50 ([5]; Table B1) | pIC50 [1, 6] | pIC50 [2, 7] | ALK % of inhibition at a concentration of 500 nM or 1 mM [3, 8] | pIC50 [4, 9] | pIC50 [5] | ALK % of inhibition at a concentration of 500 nM or 1 mM ([3]; compound at a concentration of 500 nM or 1 mM (not specified), cells shown as percentage)
1 | O=C(NCc1ccncc1)c1cc2cc(c1)Nc1nc(ncc1Cl)Nc1cccc(c1)CC2 [Example B11, 6-Chloro-N-(pyridin-4-ylmethyl)-2,4,8,22-tetraazatetracyclo[14.3.1.1(3,7).1(9,13)]docosa-1(20),3(22),4,6,9(21),10,12,16,18-nonaene-11-carboxamide bis(trifluoroacetate)] | 7.04 | 7.01 | 5.63 | 6.84 | 6.56 | – | – | – | – | – | –
2 | CC(C)N1CCC(CC(=O)Nc2ccc3cc2CCc2cncc(c2)Nc2ncc(Cl)c(n2)N3)CC1 [Example A140, N-[6-Chloro-2,4,8,18,22-pentaazatetracyclo[14.3.1.1(3,7).1(9,13)]docosa-1(20),3(22),4,6,9(21),10,12,16,18-nonaen-12-yl]-2-(1-isopropylpiperidin-4-yl)acetamide tris(trifluoroacetate)] | – | – | – | – | – | 7.34 | 7.42 | 18% | 6.93 | 7.17 | –
3 | O=C(Nc1ccc(F)c(Cl)c1)c1cc2cc(c1)Nc1nc(ncc1Cl)Nc1cccc(c1)CC2 [Example B7, 6-Chloro-N-(3-chloro-4-fluorophenyl)-2,4,8,22-tetraazatetracyclo[14.3.1.1(3,7).1(9,13)]docosa-1(20),3(22),4,6,9(21),10,12,16,18-nonaene-11-carboxamide trifluoroacetate] | 6.15 | < 6.00 | < 5.00 | < 6.00 | < 6.00 | – | – | – | – | – | –
4 | Cc1ccccc1NC(=O)Nc1ccc2cc1CCc1cccc(c1)Nc1ncc(Cl)c(n1)N2 [Example B91, N-[6-Chloro-2,4,8,22-tetraazatetracyclo[14.3.1.1(3,7).1(9,13)]docosa-1(20), 3(22),4,6,9(21),10,12,16,18-nonaen-12-yl]-N′-(2-methylphenyl)urea trifluoroacetate] | 8.57 | 8.68 | < 6.00 | 7.55 | 7.89 | – | – | – | – | – | –
5 | O=C(Nc1cccc(Cl)c1)c1cc2cc(c1)Nc1nc(ncc1Cl)Nc1cccc(c1)CC2 [Example B13, 6-Chloro-N-(3-chlorophenyl)-2,4,8,22-tetraazatetracyclo[14.3.1.1(3,7).1(9,13)]docosa-1(20),3(22),4,6,9(21),10,12,16,18-nonaene-11-carboxamide trifluoroacetate] | 6.77 | 6.05 | < 6.00 | 6.17 | < 6.00 | – | – | – | – | – | –
6 | O=C(Nc1ccc2cc1CCc1cccc(c1)Nc1ncc(Cl)c(n1)N2)C1CCCCC1 [Example B63, N-[6-Chloro-2,4,8,22-tetraazatetracyclo[14.3.1.1(3,7).1(9,13)]docosa-1(20), 3(22),4,6,9(21),10,12,16,18-nonaen-12-yl]cyclohexanecarboxamide trifluoroacetate] | 7.92 | 7.74 | 6.22 | 7.25 | 7.47 | – | – | – | – | – | –
7 | O=C(COc1cc2cc(c1)Nc1nc(ncc1Cl)Nc1cccc(c1)CC2)Nc1ccccc1 [Example A24, 2-{[6-Chloro-2,4,8,22-tetraazatetracyclo[14.3.1.1(3,7).1(9,13)]docosa-1(20),3(22),4,6,9(21),10,12,16,18-nonaen-11-yl]oxy}-N-phenylacetamide trifluoroacetate] | – | – | – | – | – | 8.37 | 7.33 | 11% | 7.24 | 6.86 | –
8 | O=C(Nc1ccc2cc1CCc1cncc(c1)Nc1ncc(Cl)c(n1)N2)N1CCN(c2ccccn2)CC1 [Example B289, N-[6-Chloro-2,4,8,18,22-pentaazatetracyclo[14.3.1.1(3,7).1(9,13)]docosa-1(20),3(22),4,6,9(21),10,12,16,18-nonaen-12-yl]-4-pyridin-2-ylpiperazine-1-carboxamide tris(trifluoroacetate)] | 6.87 | 7.77 | – | < 6.70 | 7.07 | – | – | – | – | – | 65%
9 | O=C(Nc1ccc2cc1CCc1cccc(c1)Nc1ncc(Cl)c(n1)N2)c1cnccn1 [Example B44, N-[6-Chloro-2,4,8,22-tetraazatetracyclo[14.3.1.1(3,7).1(9,13)]docosa-1(20), 3(22),4,6,9(21),10,12,16,18-nonaen-12-yl]pyrazine-2-carboxamide bis(trifluoroacetate)] | 8.54 | 7.89 | 6.52 | 7.32 | 7.66 | – | – | – | – | – | –

— patent US8871753B2, “Macrocyclic compounds and their use as kinase inhibitors” (Incyte Corporation, priority 2008, dated 2014)
